These results are taken from ChEMBL document CHEMBL1201862, “PubChem BioAssay data set” (2004).

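How tested: cells in 96-well plates exposed to compound for 48 hours at five concentrations. Here, GI50 denotes the concentration required for 50% inhibition of growth.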 Calls of active or inactive are those of the source. Cut-off read from the data, not from the text of the source: active = GI50 up to about 1.1 µM and inactive = higher. A value given as a limit tells only on which side of the number the result lay.

Among the test systems are ACHN; CAKI-1; COLO 205; HOP-62; Hs-578T; IGROV-1; K562; M14; MDA-MB-231; MDA-MB-435; Malme-3M; NCI-H460; OVCAR-5; PC-3; RXF 393; SF-539; U-251; UACC-62; HCC 2998.
What all share (assay): growth of human tumour cells (NCI), 48 h

With `O=c1[nH]c2ccc(Cl)cc2o1`, the GI50 in the assay on ACHN, in the assay with CAKI-1, in the assay on COLO 205, in the assay with HOP-62, in the assay on Hs-578T and with IGROV-1 was > 100 µM (inactive) each time. Also, the GI50 with K562, in the assay on M14, in the assay on MDA-MB-231, in the assay with MDA-MB-435, in the assay on Malme-3M and in the assay with NCI-H460 was > 100 µM (inactive) throughout. The GI50 with OVCAR-5, in the assay on PC-3, in the assay on RXF 393, in the assay with SF-539, with U-251 and in the assay on UACC-62 was > 100 µM (inactive) in each case.
With `O=c1[nH]nc(Cc2ccccc2)n1/N=C/c1ccc(/C=N/n2c(Cc3ccccc3)n[nH]c2=O)cc1`, the GI50 was > 100 µM (inactive) with ACHN; > 100 µM (inactive) in the assay on CAKI-1; > 100 µM (inactive) in the assay on COLO 205; 57.5 µM (inactive) in the assay with HOP-62; > 100 µM (inactive) in the assay with Hs-578T; > 100 µM (inactive) in the assay with IGROV-1. Also, the GI50 in the assay on K562 was 20.2 µM (inactive); in the assay with M14, > 100 µM (inactive); in the assay with MDA-MB-231, 38.8 µM (inactive); in the assay with MDA-MB-435, > 100 µM (inactive); with Malme-3M, > 100 µM (inactive); in the assay with NCI-H460, > 100 µM (inactive). Moreover, the GI50 with OVCAR-5 was > 100 µM (inactive); in the assay with PC-3, > 100 µM (inactive); with RXF 393, 35.3 µM (inactive); with U-251 it was 57.3 µM (inactive); in the assay with UACC-62, > 100 µM (inactive).
`COc1cc(Cn2c3c(c4cc(O)ccc42)Cc2ccccc2C3=O)cc(OC)c1`: the GI50 in the assay on CAKI-1 is 32.7 µM (inactive); with COLO 205, 28.9 µM (inactive); with HOP-62, 60.7 µM (inactive); in the assay with Hs-578T it was > 100 µM (inactive); with IGROV-1, 44.8 µM (inactive); in the assay with K562, 44.7 µM (inactive). The GI50 is 68.1 µM (inactive) in the assay with M14; 31 µM (inactive) in the assay with MDA-MB-231; 11.9 µM (inactive) in the assay with MDA-MB-435; 42.1 µM (inactive) in the assay on Malme-3M; 62.1 µM (inactive) with NCI-H460; 19.1 µM (inactive) in the assay with OVCAR-5. The GI50 in the assay with PC-3 was 56.5 µM (inactive); in the assay on RXF 393, > 100 µM (inactive); in the assay on SF-539, 37.3 µM (inactive); in the assay with U-251 it was 57.3 µM (inactive); in the assay with UACC-62, 38.2 µM (inactive).
Take `O=c1oc2ccccc2cc1-c1cc2ccccn2c1`: the GI50 in the assay with ACHN, with CAKI-1, in the assay with COLO 205, with HOP-62, in the assay on Hs-578T and in the assay on IGROV-1 was > 100 µM (inactive) each time. Also, the GI50 in the assay with K562, with M14, with MDA-MB-231, with MDA-MB-435, in the assay with NCI-H460 and in the assay with OVCAR-5 was > 100 µM (inactive) each time. The GI50 in the assay with PC-3, with RXF 393, with U-251 and in the assay on UACC-62 was > 100 µM (inactive) throughout.
Consider `CC(Br)C(=O)Nc1ccc(C(=O)O)c(O)c1` (stereo not drawn), for which the GI50 was > 100 µM (inactive) in the assay on ACHN; > 100 µM (inactive) in the assay with CAKI-1; > 100 µM (inactive) in the assay with COLO 205; 34.8 µM (inactive) with HOP-62; 33.4 µM (inactive) with Hs-578T; > 100 µM (inactive) with IGROV-1. Also, the GI50 was 49.8 µM (inactive) in the assay on K562; 33.4 µM (inactive) with M14; 68.2 µM (inactive) with MDA-MB-231; 34.4 µM (inactive) in the assay with MDA-MB-435; 20.7 µM (inactive) with Malme-3M; > 100 µM (inactive) in the assay with NCI-H460. Further, the GI50 with OVCAR-5 was > 100 µM (inactive); in the assay on PC-3 it was 34 µM (inactive); with RXF 393 it was 53.6 µM (inactive); in the assay with SF-539, 38.6 µM (inactive); in the assay on U-251 it was 23.2 µM (inactive); with UACC-62, 33.6 µM (inactive).
Consider `CC(O)C1(CNc2cc(Cl)nc(N)n2)CC(CCc2ccccc2)C1` (stereo not drawn), for which the GI50 in the assay on ACHN was 9.73 µM (inactive); with CAKI-1 it was 11 µM (inactive); with COLO 205 it was 15.5 µM (inactive); in the assay on HOP-62, 14.1 µM (inactive); in the assay with Hs-578T, 17.3 µM (inactive); in the assay on IGROV-1, 13.6 µM (inactive). The GI50 with K562 was 6.78 µM (inactive); with M14, 17.9 µM (inactive); with MDA-MB-231, 10.7 µM (inactive); in the assay on MDA-MB-435 it was 13.7 µM (inactive); in the assay with Malme-3M, 13.3 µM (inactive); in the assay with NCI-H460, 14 µM (inactive). Besides, the GI50 was 17.2 µM (inactive) in the assay with OVCAR-5; 11.6 µM (inactive) with PC-3; 16.6 µM (inactive) in the assay on RXF 393; 16.6 µM (inactive) in the assay with SF-539; 14.5 µM (inactive) with U-251; 11.9 µM (inactive) with UACC-62.
As to `O=c1[nH]nc(-c2ccc3ccccc3c2)[nH]1`, the GI50 with ACHN was > 100 µM (inactive); with CAKI-1, > 100 µM (inactive); in the assay on COLO 205, > 100 µM (inactive); in the assay on HCC 2998, > 100 µM (inactive); with HOP-62 it was > 100 µM (inactive); in the assay with Hs-578T, 2.81 µM (inactive). The GI50 is 70.3 µM (inactive) in the assay on IGROV-1; > 100 µM (inactive) in the assay on K562; > 100 µM (inactive) in the assay with M14; > 100 µM (inactive) in the assay on MDA-MB-435; > 100 µM (inactive) with Malme-3M; > 100 µM (inactive) in the assay on NCI-H460. The GI50 is > 100 µM (inactive) in the assay on OVCAR-5; > 100 µM (inactive) with PC-3; > 100 µM (inactive) in the assay on RXF 393; > 100 µM (inactive) in the assay with SF-539; > 100 µM (inactive) with U-251; 21 µM (inactive) with UACC-62.
For `CSc1nc(C#N)c(N)n1C`, the GI50 in the assay on ACHN, with CAKI-1, in the assay on COLO 205, with HOP-62, with Hs-578T and with IGROV-1 was > 100 µM (inactive) in each case. Also, the GI50 in the assay with K562, in the assay with M14, in the assay on MDA-MB-231, in the assay on MDA-MB-435, with Malme-3M and in the assay with NCI-H460 was > 100 µM (inactive) each time. Further, the GI50 in the assay with OVCAR-5, in the assay on PC-3, in the assay on RXF 393, in the assay with SF-539, with U-251 and in the assay on UACC-62 was > 100 µM (inactive) each time.
Consider `O=c1cn[nH]c(=S)n1/N=C/c1c[nH]c2ccccc12`, for which the GI50 was > 100 µM (inactive) in the assay with ACHN; > 100 µM (inactive) with CAKI-1; > 100 µM (inactive) in the assay with COLO 205; > 100 µM (inactive) in the assay with HCC 2998; 49.3 µM (inactive) with HOP-62; > 100 µM (inactive) with Hs-578T. The GI50 in the assay with IGROV-1 was 0.564 µM (active); with K562, 48 µM (inactive); in the assay with M14 it was > 100 µM (inactive); in the assay with MDA-MB-435 it was 58.5 µM (inactive); in the assay on Malme-3M, > 100 µM (inactive); with NCI-H460 it was > 100 µM (inactive). Also, the GI50 in the assay on OVCAR-5 was > 100 µM (inactive); in the assay on PC-3, 77.6 µM (inactive); in the assay with SF-539, > 100 µM (inactive); in the assay with U-251, > 100 µM (inactive); in the assay on UACC-62 it was 78.7 µM (inactive).
`CN1c2ccccc2C(=O)NC12CCN(Cc1ccccc1)CC2`: the GI50 in the assay on ACHN is 31.2 µM (inactive); in the assay on COLO 205, 35.4 µM (inactive); with HCC 2998, 83.6 µM (inactive); with HOP-62, 54.7 µM (inactive); with Hs-578T, 36.7 µM (inactive); in the assay on IGROV-1 it was 69.2 µM (inactive). Besides, the GI50 in the assay with M14 is 33.4 µM (inactive); in the assay with MDA-MB-231 it was 96.6 µM (inactive); with MDA-MB-435, 63.1 µM (inactive); in the assay on Malme-3M it was 87.1 µM (inactive); with NCI-H460 it was 39.4 µM (inactive); in the assay with OVCAR-5, > 100 µM (inactive). Moreover, the GI50 with RXF 393 was > 100 µM (inactive); in the assay with SF-539 it was 50.7 µM (inactive); in the assay on U-251, 40.1 µM (inactive); with UACC-62 it was 86.5 µM (inactive).
In the case of `O=C1CCC(=O)N1CNc1ccc2c(c1)Sc1ccccc1O2`, the GI50 in the assay on ACHN is 47 µM (inactive); with CAKI-1, 32.7 µM (inactive); with COLO 205, 18 µM (inactive); in the assay with HOP-62, 43.7 µM (inactive); in the assay on Hs-578T, 44.7 µM (inactive); in the assay on IGROV-1 it was 38.9 µM (inactive). In addition, the GI50 in the assay with K562 was 49.8 µM (inactive); in the assay with M14, 27.2 µM (inactive); with MDA-MB-231, 41.9 µM (inactive); in the assay on MDA-MB-435 it was 31.9 µM (inactive); in the assay on Malme-3M, 58.6 µM (inactive); in the assay on OVCAR-5, 43.9 µM (inactive). For the same compound, the GI50 with PC-3 was 32 µM (inactive); in the assay with RXF 393, 22.5 µM (inactive); with SF-539 it was 15.6 µM (inactive); with U-251, 30.3 µM (inactive); in the assay with UACC-62 it was 48.9 µM (inactive).
With `C/C(=N\NC(=S)NC(C)C)c1nc2cccnc2[nH]1`, the GI50 in the assay on ACHN was 21.9 µM (inactive); with CAKI-1, 18.2 µM (inactive); in the assay on COLO 205, 11 µM (inactive); in the assay on HCC 2998 it was 19.4 µM (inactive); with HOP-62, 18 µM (inactive); in the assay on Hs-578T, 23.9 µM (inactive). The GI50 in the assay on IGROV-1 is 19.8 µM (inactive); in the assay on K562, 4.48 µM (inactive); in the assay on M14, 57.9 µM (inactive); in the assay on MDA-MB-231, > 26.7 µM (inactive); with Malme-3M it was 33.9 µM (inactive); in the assay with NCI-H460, 14 µM (inactive). Moreover, the GI50 in the assay with OVCAR-5 is 28.8 µM (inactive); in the assay on PC-3 it was 27.9 µM (inactive); with RXF 393, 33.8 µM (inactive); in the assay on SF-539, > 37.9 µM (inactive); in the assay on U-251, 21.3 µM (inactive); in the assay on UACC-62, 29.8 µM (inactive).
